This note sets out measurements from US20230391775A1, “SUBSTITUTED DIARYLAMINE COMPOUND, PHARMACEUTICAL COMPOSITION THEREOF, PREPARATION METHOD THEREFOR, AND USE THEREOF” (SUZHOU YABAO PHARMACEUTICAL R&D CO., LTD., priority 2020, published 2023).

One series concerns the target LRRK2 G2019S (Homo sapiens (Human), UniProt Q5S007, G2019S). In words: Adapta kinase assay (LRRK2_IC50 assay). In kind it is biochemical. To be noted: Adapta TR-FRET, 1 h, room temperature. How it is done:
In the Adapta™ kinase assay method (LRRK2_IC50 assay): the kinase reaction buffer contained kinase buffer S (Life Technologies, PV5213) and 2 mM DTT (Life Technologies, P2325). The kinases LRRK2 G2019S protein (PV4881) and ERM (LRRKtide, PV5093) were derived from Life Technologies. The Adapta™ universal kinase assay kit (Life Technologies, PV5099) contained the following components: Adapta™ Eu-anti-ADP antibody (PV5097; 4 μg); 10 μM AlexaFluor®647 ADP tracer (PV5098; 200 pmol); TR-FRET dilution buffer (PV3574; 100 mL); kinase quench buffer (P2825; 1 mL); 10 mM ATP (PV3227; 500 μL); and 10 mM ADP (PV5096; 500 μL). LRRK2-IN-1 (1234480-84-2, HY-10875) was derived from MedChem Express.
Adapta™ Kinase Assay Method
Adapta® universal kinase assay method is a uniform fluorescence-based immunoassay for detecting ADP. In contrast to ATP consumption assay, Adapta® assay method was very sensitive to ADP formation, with most signal changes occurring when initially 10-20% ATP was converted to ADP. This made Adapta® universal kinase assay method very suitable for low-activity kinases.
All assays were performed at room temperature (about 21° C.) and were linearly related to time and enzyme concentration under the conditions used. 1× kinase reaction buffer was prepared from 5× kinase buffer S stock solution (listed above), and 10 mL of 1× kinase reaction buffer was prepared by the addition of 2 mL of 5× stock solution to 8 mL of H2O. To the 1× kinase reaction buffer was added 20 μL of 1 M DTT.
A kinase reaction was performed in a low-volume 384-well plate in a volume of 10 μL. Typically, a Greiner plate was used (Catalog #3674 #, low volume, white wall, 784075). Other untreated assay plates that were not tested could also be suitable. The substrate concentration in the assay was 100 μM, and the 1× kinase reaction buffer consisted of 50 mM Tris-HCl (pH 8.5), 10 mM MgCl2, 1 mM EGTA, 0.01% Brij-35 and 2 mM DTT, as well as any other additives that could be necessary for the particular kinase. The kinase reaction was allowed to proceed for 1 h at room temperature, followed by the addition of a formulation of kinase quenching buffer (EDTA; 30 mM), Eu-labeled antibody (6 nM), and tracer (18.9 nM) in TR-FRET dilution buffer (5 μL). The final concentration of the antibody in the assay wells was 2 nM, the final concentration of the tracer was 6.3 nM, and the final concentration of EDTA was 10 mM. The plate was allowed to equilibrate at room temperature for at least 30 min and then read on a plate reader configured for Adapta™ TR-FRET.
The data provided in this document were generated by using BMG LABTECH PHERAstar plate reader and using appropriate filters and instrument settings for Adapta™. Test compounds were screened in wells with 1% DMSO (final). For 8-point titration, a 5-fold serial dilution was made on the basis of a starting concentration.
For orientation: Time-resolved FRET reads energy transfer from a long-lived donor to a nearby acceptor.

Series [1] can be described thus: Drug tissue distribution assay: plasma pharmacokinetics. In kind it is in vivo. The conditions noted are these: mice, single oral intragastric 30 mg/kg. As to the method: (§1) Test sample: compound 4, purity 99%
(§2) Preparation of test sample: 22.73 mg of compound 4 was weighed and placed in a mortar (according to the purity of 99%), and a small amount of 0.5% CMC-Na was added followed by full grinding. The mixture was then transferred to a container; the mortar was washed for 4 times; the washing solution was transferred to the container, followed by the addition of 0.5% CMC-Na until the volume of the reaction solution was 30 mL; and then a test sample suspension with a concentration of […] was prepared. The suspension was stirred with a magnetic stirrer at a rotation speed of 1200 rpm for at least 15 min prior to sampling for analysis and administration, with fresh preparation just prior to use.
(§3) Route of administration: oral intragastric administration
(§4) Frequency and dose of administration: single administration at 30 mg/kg (40 mL/kg)
(§5) After drug administration, 0.4 mL of blood was collected from the heart of each group of animals at corresponding time points of 0.25 h, 0.5 h, 1 h, 2 h, 4 h, 6 h, 8 h, and 24 h, respectively, the animals were anesthetized by intraperitoneal injection of 50 mg/kg Zoletil, and then put to death by bleeding. The brain, lung, and kidney of each animal were taken out, washed with normal saline, dried off with filter paper, and put into a cryopreservation tube. The cryopreservation tube was temporarily placed in dry ice, and stored at −60° C. or below for 12 h.
(§6) The collected blood was anticoagulated with EDTA-K2, then temporarily placed in wet ice, and then centrifuged for 10 min at 4° C. and at 2600 g within 2 h. The plasma was temporarily placed in dry ice, and stored in a refrigerator at −60° C. or below within 14 h.
(§7) Analytical method: The drug concentrations in plasma and brain tissue were measured by the following LC-MS/MS method. • Instrument: Shimadzu LC-MS/MS (Model: LCMS-8060); • Chromatographic column: GL Sciences Inc., InertSustain, C18, 3 μm, 2.1×50 mm; • Ion detection: positive ion mode, m/z 453.10/338.05; • Mobile phase A: aqueous solution containing 0.1% TFA; mobile phase B: methanol solution containing 0.1% TFA;
(§8) Pharmacokinetic parameter evaluation index: pharmacokinetic parameters were calculated in a non-compartmental model using WinNonlin 6.4.

Series [2] can be described thus: Drug tissue distribution assay: brain tissue pharmacokinetics / blood-brain barrier permeability. In kind it is in vivo. The conditions noted are these: mice, single oral intragastric 30 mg/kg. How it is done: as §1, §2, §3, §4, §5, §6, §7, §8

LRRK2 G2019S, sequence (Q5S007 whole entry G2019S): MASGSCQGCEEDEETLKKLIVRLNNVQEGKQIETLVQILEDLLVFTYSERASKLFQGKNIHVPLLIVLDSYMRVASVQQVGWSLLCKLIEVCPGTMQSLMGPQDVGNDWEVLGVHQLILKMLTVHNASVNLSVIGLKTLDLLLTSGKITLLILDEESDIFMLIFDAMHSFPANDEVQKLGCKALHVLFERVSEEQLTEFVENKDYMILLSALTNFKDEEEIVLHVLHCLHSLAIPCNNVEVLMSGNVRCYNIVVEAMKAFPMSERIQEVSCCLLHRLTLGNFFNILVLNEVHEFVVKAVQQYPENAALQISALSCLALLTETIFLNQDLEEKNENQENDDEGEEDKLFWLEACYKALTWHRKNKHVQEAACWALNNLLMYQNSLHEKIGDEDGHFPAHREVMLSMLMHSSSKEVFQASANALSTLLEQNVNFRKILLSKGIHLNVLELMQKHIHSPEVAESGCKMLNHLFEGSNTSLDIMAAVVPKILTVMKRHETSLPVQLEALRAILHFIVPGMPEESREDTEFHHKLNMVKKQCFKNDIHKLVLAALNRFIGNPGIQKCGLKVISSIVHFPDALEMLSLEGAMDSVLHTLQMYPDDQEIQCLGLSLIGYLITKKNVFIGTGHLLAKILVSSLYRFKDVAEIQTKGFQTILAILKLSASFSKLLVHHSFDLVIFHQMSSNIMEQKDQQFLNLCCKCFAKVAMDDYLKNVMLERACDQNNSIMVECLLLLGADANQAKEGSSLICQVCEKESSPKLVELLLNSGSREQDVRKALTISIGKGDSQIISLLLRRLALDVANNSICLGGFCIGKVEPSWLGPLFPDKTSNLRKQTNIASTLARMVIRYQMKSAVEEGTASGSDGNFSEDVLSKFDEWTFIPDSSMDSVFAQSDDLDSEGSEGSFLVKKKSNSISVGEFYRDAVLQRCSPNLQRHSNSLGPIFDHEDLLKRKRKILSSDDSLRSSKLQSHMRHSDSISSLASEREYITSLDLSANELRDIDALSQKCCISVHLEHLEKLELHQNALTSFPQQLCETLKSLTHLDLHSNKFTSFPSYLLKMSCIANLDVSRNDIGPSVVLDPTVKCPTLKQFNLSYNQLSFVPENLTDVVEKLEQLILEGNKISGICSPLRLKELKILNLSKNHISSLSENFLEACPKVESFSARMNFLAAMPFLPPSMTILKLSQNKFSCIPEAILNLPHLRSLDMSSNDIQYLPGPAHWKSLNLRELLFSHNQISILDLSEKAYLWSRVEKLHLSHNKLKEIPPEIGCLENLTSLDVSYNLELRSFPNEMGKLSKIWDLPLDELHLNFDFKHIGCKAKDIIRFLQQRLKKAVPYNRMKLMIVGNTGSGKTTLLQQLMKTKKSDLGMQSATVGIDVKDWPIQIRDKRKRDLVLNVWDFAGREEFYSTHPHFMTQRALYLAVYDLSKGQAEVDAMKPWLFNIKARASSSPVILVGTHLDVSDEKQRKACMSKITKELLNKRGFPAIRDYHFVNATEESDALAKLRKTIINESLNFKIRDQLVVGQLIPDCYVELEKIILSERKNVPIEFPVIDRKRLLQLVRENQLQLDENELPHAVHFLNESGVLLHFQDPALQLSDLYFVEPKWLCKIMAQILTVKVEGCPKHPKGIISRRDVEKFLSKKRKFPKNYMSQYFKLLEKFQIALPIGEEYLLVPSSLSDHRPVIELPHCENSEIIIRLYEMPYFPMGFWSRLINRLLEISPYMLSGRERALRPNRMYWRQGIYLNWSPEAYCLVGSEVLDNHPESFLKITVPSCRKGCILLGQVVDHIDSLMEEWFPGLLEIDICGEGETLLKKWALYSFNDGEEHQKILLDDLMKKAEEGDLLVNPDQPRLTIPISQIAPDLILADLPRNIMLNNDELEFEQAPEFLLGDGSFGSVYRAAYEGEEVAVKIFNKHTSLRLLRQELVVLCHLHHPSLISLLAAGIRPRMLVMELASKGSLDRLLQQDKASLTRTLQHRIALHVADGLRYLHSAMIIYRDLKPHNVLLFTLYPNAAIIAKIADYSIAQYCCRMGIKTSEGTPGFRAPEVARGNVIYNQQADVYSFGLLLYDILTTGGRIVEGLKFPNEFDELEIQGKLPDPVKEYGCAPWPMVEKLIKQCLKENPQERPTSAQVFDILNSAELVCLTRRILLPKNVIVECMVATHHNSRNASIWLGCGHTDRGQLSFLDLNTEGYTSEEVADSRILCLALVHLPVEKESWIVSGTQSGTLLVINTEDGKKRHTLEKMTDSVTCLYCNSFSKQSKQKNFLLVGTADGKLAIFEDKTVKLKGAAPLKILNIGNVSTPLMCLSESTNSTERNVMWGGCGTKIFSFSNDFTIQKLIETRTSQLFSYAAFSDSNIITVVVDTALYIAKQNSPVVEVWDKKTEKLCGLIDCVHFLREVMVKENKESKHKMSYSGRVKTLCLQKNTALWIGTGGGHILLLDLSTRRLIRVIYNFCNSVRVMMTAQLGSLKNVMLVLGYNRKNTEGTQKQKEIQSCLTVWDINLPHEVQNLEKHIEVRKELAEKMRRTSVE

For orientation: IC50 means the concentration at which inhibition is half-maximal. The low end stands for greater potency in that assay, the high end for weaker potency in that assay. For orientation: CL/F means clearance divided by bioavailability, as obtained after extravascular dosing. Usually Tmax stands for the time from dosing to the highest level. As a reminder, the half-life is the time needed for the level to fall by half in the phase considered. Lower therefore signals fast loss. `CCOc1nc(Nc2ccc(C(N3CCOCC3)C(F)(F)F)cc2OC)nc2[nH]ccc12` (single isomer, unassigned) [Compound 4, 4-ethoxy-N-(2-methoxy-4-(2,2,2-trifluoro-1-morpholinoethyl)phenyl)-7H-pyrrolo[2,3-d]pyrimidin-2-amine] came in with an IC50 against LRRK2 G2019S of 17 nM. Also, in series [1], the AUC0-t is listed as 3248 ng · h · mL^−l, the “AUC0-∞” value is given as 3257 ng · h · mL^−l, the Cmax was 597 ng · mL^−l and the Kel is 0.247 h^−l. In series [1] (mouse), the CL/F is 154 mL/min/kg, the Tmax is 1 h and the half-life is 2.8 h. In addition, the MRT last in series [1] (mouse, read-out: MRT0-t) is 4.5 h. For the same compound, the MRT inf in series [1] (mouse, read-out: MRT0-∞) was 4.56 h. Also, the Vd/F in series [1] (mouse, read-out: Vz/F) was 37.3 L/kg. Moreover, in series [2] (brain tissue), the AUC0-t turned out to be 6457 ng · h · g^−l, the “AUC0-∞” value was determined as 7409 ng · h · g^−l and the Cmax is 1898 ng · g^−l. For the same compound, the blood-brain barrier permeability result in series [2] (result in words) is listed as “excellent blood-brain barrier permeability”. Further, the Kp in series [2] (mouse, brain / plasma, read-out: AUCbrain/AUCplasma) was approximately 2. The Tmax in series [2] (mouse, brain tissue) worked out at 1 h.
